Read-outs that look alike come from different tables or passages of the source.
Tested on: murine fibrosarcomas (RIF−1 cells)
Format: in vivo
Settings: for Mean TVQT (± SE): RIF-1 tumors in C3H mice, paclitaxel 10 mg/kg, camptothecin 6 mg/kg, combinations with second agent 30 min after menogaril; for Mean TVQT (± SE) / Mean TVQT ± S.E.: menogaril 50 mg/kg; for Delay: median TVQT of treated group minus median of control; for Delay / TVQT/CTVQT / Median (TVQT): same doses; for Mean TVQT ± S.E.: RIF-1 tumors in female C3H mice, single i.p. injection, cisplatin 4 mg/kg, combination with cisplatin 30 min after menogaril, 4 mice per group
Protocol: Transplantable experimental murine fibrosarcomas (2×10^5 RIF−1 cells) were grown intradermally in the flanks of 3 month old female C3H mice (Charles River, Holister, Calif.). When the tumors reached a volume of approximately 100 mm^3, the mice were randomly assigned to each experimental group (4 mice per group).
The chemopotentiator, menogaril, was obtained from NCI and was made to the appropriate concentration in DMSO. Cisplatin (David Bull Laboratories- Mulgrave, Australia, lot. 5201844x) was made to the appropriate concentration in water for injection. The compositions were injected systemically (i.e., intraperitoneally, i.p.), in a volume of 100 microliters. For the treatment of group 3, the chemopotentiator, menogaril, was injected 30 minutes prior to the injection of cisplatin. After treatment, the growth of the tumors was monitored three times per week by caliper measurements of three perpendicular diameters of the tumor and calculation of tumor volume from the formula: […]
The tumors were followed until they reached a size of four times their day zero treatment volume (TVQT), or up to 30 days after treatment, whichever came first. The data is expressed as the “tumor volume quadrupling time” (TVQT) mean and as the “delay.” Mean TVQT is the mean days required for individual tumors to grow to four times the tumor volume at the initial treatment day. The “delay” is the median of days required for a tumor to grow to four times the mean size of the treated group, minus the median of days required to grow to four times the mean size of the control group. The data is also expressed as the ratio of the tumor volume quadrupling time of the treated tumor over the untreated control group (TVQT/CTVQT). Increasing values of this ratio indicate increased antitumor response.
The ability of menogaril to enhance the effect of camptothecin or paclitaxel was also studied, using the same methods described in Example 1. […] For each injection, 100 microliters was injected.

[1] = Example 2, Table 4, ratio of treated group over untreated control, IP
[2] = Example 1, Table 3, ratio of TVQT of treated group over untreated control, i.p.

SMILES	Mean TVQT (± SE) (Example 2, Table 4, IP)	Delay (Example 2, Table 4, IP)	TVQT/CTVQT [1]	Median (TVQT) (Example 2, Table 4, IP)	Mean TVQT ± S.E. (Example 1, Table 3)	Delay (Example 1, Table 3, i.p.)	TVQT/CTVQT [2]	Median (TVQT) (Example 1, Table 3, i.p.)
CC[C@@]1(O)C(=O)OCc2c1cc1n(c2=O)Cc2cc3ccccc3nc2-1 [Camptothecin, camptothecin]	9.9 ± 0.5 days	1.44	1.1	9.8 days	–	–	–	–
CC(=O)O[C@H]1C(=O)[C@@]2(C)[C@H]([C@H](OC(=O)c3ccccc3)[C@]3(O)C[C@H](OC(=O)[C@H](O)[C@@H](NC(=O)c4ccccc4)c4ccccc4)C(C)=C1C3(C)C)[C@]1(OC(C)=O)CO[C@@H]1C[C@@H]2O [Paclitaxel, paclitaxel]	9.0 ± 0.4 days	0.36	1.0	8.7 days	–	–	–	–
CO[C@@H]1C[C@](C)(O)Cc2cc3c(c(O)c21)C(=O)c1c(O)cc2c(c1C3=O)O[C@@H]1O[C@@]2(C)[C@H](O)[C@@H](N(C)C)[C@@H]1O [Menogaril, 2,6-Epoxy-2H-naphthaceno[1,2-b]oxocin-9,16-dione, 4-(dimethylamino)-3,4,5,6,11,12,13,14-octahydro-3,5,8,10,13-pentahydroxy-11-methoxy-6,13-dimethyl-,(2alpha,3beta,4alpha,5beta,6alpha, 11 alpha, 13alpha)-, (P)-]	10.2 ± 0.8 days	1.84	1.2	10.2 days	9.1 ± 0.5 days	3.31 days	1.4	9.4 days
N.N.[Cl][Pt][Cl] [Cisplatin, cis-diamminedichloroplatinum II]	–	–	–	–	8.4 ± 0.3 days	2.10 days	1.3	8.1 days

Reference: patent publication US20020022652A1, “Methylnogarol compositions and uses thereof” (priority 2000, published 2002)
